In patent US5912247A, “Quinazoline compound and anti-tumor agent containing said compound as an active ingredient” (Kanebo, Ltd., priority 1995, dated 1999):
Structures can show the parent of a compound that is named as a salt.

Test system: Colon 26 solid tumor
Experiment: Inhibitory activity of dye accumulation in the solid tumor tissue (inhibition of the tumor blood flow)
Assay type: in vivo, Male BALB/c mice
Set-up: key to Inhibitory activity of dye accumulation into solid tumor: +: The average absorbance in the test group is significantly smaller than the average absorbance in the control group.; -: There is no significant difference in the average absorbance between the test group and the control group
Conditions: intravenous, Evans blue 1 hour after administration
Experimental: Inhibitory activity of dye accumulation in the solid tumor tissue (inhibition of the tumor blood flow): a) Materials: Test Animal: Male BALB/c mice (weighing 21-27 g, six mice per group) Tumor: Colon 26 solid tumor b) Test Method: Colon 26 solid tumor was cut in a size of about 1 mm square. The pieces of solid tumor were treated with a 0.25% collagenase solution and 0.02% deoxyribonuclease solution at 37° C. for 1.5 hour to give a cell suspension of colon 26 solid tumor cells. The cell suspension was adjusted to 3×10^6 cells/ml and the cell suspension (100 μl) was subcutaneously inoculated on the right back of male BALB/c mice. Ten days after the transplantation, the longitudinal size of the tumor was measured, and when the longitudinal size of the tumor reached about 10 mm, the mice were randomized. To the mice in test groups, the test compound was intravenously administered in an amount of 10 mg/kg or 1.25 mg/kg. The test compound was administered in the form of a solution in saline (in the test solution of Test Compound BF and BK, an equimolar amount of fumaric acid was further added, and in the test solution of Test Compound BN, an equimolar amount of hydrochloric acid was further added). To the mice in the control group, only saline was administered intravenously. One hour after the administration, 3% Evans blue-saline solution was injected intravenously via the tail vein of the mice in a volume of 0.1 ml per 10 g of the body weight of mouse, and 5 minutes later the mice were killed by luxation of the cervical vertebrae. After removing the tumor, the tumor was weighed. To extract Evans blue, the tumor was suspensed in 0.5% aqueous sodium sulfate (1.5 ml per 1 g of the tumor) and acetone (3.5 ml per 1 g of tumor), and then the tumor was cut into small pieces. After allowing to stand at room temperature overnight, the suspension were centrifuged at 3,000 rpm for 10 minutes to extract Evans blue, and the absorbance of the supernatant was read at 630 nm. […] (-): There is no significant difference in the average absorbance between the test group and the control group.

Row | Structure (SMILES) | Inhibitory activity of dye accumulation into solid tumor (1.25 mg/kg) | Inhibitory activity of dye accumulation into solid tumor (10 mg/kg)
1 | C[C@@H](O)[C@H](O)COc1nc(N2CCNCC2)nc2ccccc12.Cl [Compound BH, 4-[(2R,3R)-(2,3-Dihydroxybutan-1-yl)oxy]-2-(1-piperazinyl)quinazoline monohydrochloride] | + | +
2 | CC(=O)O.OC1CCC(Oc2nc(N3CCNCC3)nc3ccccc23)C1 (stereo not drawn) [Compound AC, 4-[(3-Hydroxycyclopentan-1-yl)oxy]-2-(1-piperazinyl)quinazoline monoacetate] | + | +
3 | CC(=O)O.C[C@H](O)[C@H](C)Oc1nc(N2CCNCC2)nc2ccccc12 [Compound BD, 4-[(2S,3S)-(3-Hydroxybutan-2-yl)oxy]-2-(1-piperazinyl)quinazoline monoacetate] |  | +
4 | CC(=O)O.O[C@H]1CCC[C@H]1Oc1nc(N2CCNCC2)nc2ccccc12 (relative stereo) [Compound AB, 4-[cis-(2-Hydroxycyclopentan-1-yl)oxy]-2-(1-piperazinyl)quinazoline monoacetate] | - | +
5 | CC(=O)O.OCCOc1nc(N2CCNCC2)nc2ccccc12 [Compound BA, 4-[(2-Hydroxyethyl)oxy]-2-(1-piperazinyl)-quinazoline monoacetate] | + | +
6 | O[C@@H]1CCC[C@H]1Oc1nc(N2CCNCC2)nc2ccccc12 [Compound AE, 4-[(1R,2R)-(2-Hydroxycyclopentan-1-yl)oxy]-2-(1-piperazinyl)quinazolinemonoacetate] | + | +
7 | Cl.OC[C@H](O)[C@@H](O)COc1nc(N2CCNCC2)nc2ccccc12 [Compound BL, 4-[(2S,3S)-(2,3,4-Trihydroxybutan-1-yl)oxy]-2-(1-piperazinyl)quinazoline monohydrochloride] | + | +
8 | O[C@@H]1[C@H](O)[C@@H](Oc2nc(N3CCNCC3)nc3ccccc23)C[C@H]1O [Compound AP, 4-[(1S,2S,3S,4R)-(2,3,4-Trihydroxycyclopentan-1-yl)oxy]-2-(1-piperazinyl)quinazoline 1/2 fumarate] | + | +
9 | CO[C@H]1C[C@@H](Oc2nc(N3CCNCC3)nc3ccccc23)[C@H](O)[C@@H]1O [Compound AS, 4-[(1R,2R,3S,4S)-(2,3-Dihydroxy-4-methoxy-cyclopentan-1-yl)oxy]-2-(1-piperazinyl)quinazoline 1/2 fumarate] | + | +
10 | CC(=O)O.C[C@H](O)[C@@H](C)Oc1nc(N2CCNCC2)nc2ccccc12 (racemic) [Compound BC, 4-[(2RS,3SR)-(3-Hydroxybutan-2-yl)oxy]-2-(1-piperazinyl)quinazoline monoacetate] | + | +
11 | O[C@@H]1[C@H](O)[C@@H](Oc2nc(N3CCNCC3)nc3ccccc23)C[C@H]1O (relative stereo) [Compound AO, 4-[(t-2,t-3,c-4-Trihydroxycyclopentan-r-1-yl)-oxy]-2-(1-piperazinyl)quinazoline 1/2 fumarate] | + | +
12 | CC(=O)O.O[C@@H]1CCC[C@H]1Oc1nc(N2CCNCC2)nc2ccccc12 (relative stereo) [Compound AA, 4-[trans-(2-Hydroxycyclopentan-1-yl)oxy]-2-(1-piperazinyl)quinazoline monoacetate] | + | +
13 | Cl.O[C@@H]1COC[C@H]1Oc1nc(N2CCNCC2)nc2ccccc12 [Compound AK, 4-[(3R,4R)-(4-Hydroxytetrahydrofuran-3-yl)-oxy]-2-(1-piperazinyl)quinazoline monohydrochloride] | + | +
14 | Cl.OC[C@@H](O)CCOc1nc(N2CCNCC2)nc2ccccc12 [Compound BI, 4-[(3S)-(3,4-Dihydroxybutan-1-yl)oxy]-2-(1-piperazinyl)quinazoline monohydrochloride] | + | +
15 | CC(=O)O.O[C@@H]1COC[C@H]1Oc1nc(N2CCNCC2)nc2ccccc12 (relative stereo) [Compound AF, 4-[trans-(4-Hydroxytetrahydrofuran-3-yl)oxy]-2-(1-piperazinyl)quinazoline monoacetate] | + | +
16 | O[C@@H]1[C@H](O)[C@@H](O)C[C@H]1Oc1nc(N2CCNCC2)nc2ccccc12 [Compound AQ, 4-[(1R,2R,3R,4S)-(2,3,4-Trihydroxycyclopentan-1-yl)oxy]-2-(1-piperazinyl)quinazoline 1/2 fumarate] | + | +
17 | CC(=O)O.C[C@@H](O)[C@@H](C)Oc1nc(N2CCNCC2)nc2ccccc12 [Compound BE, 4-[(2R,3R)-(3-Hydroxybutan-2-yl)oxy]-2-(1-piperazinyl)quinazoline monoacetate] |  | +
18 | C[C@@H](O)[C@H](O)COc1nc(N2CCNCC2)nc2ccccc12 (racemic) [Compound BF, 4-[(2RS,3RS)-(2,3-Dihydroxybutan-1-yl)oxy]-2-(1-piperazinyl)quinazoline] | + | +
19 | O[C@H]1CCC[C@@H]1Oc1nc(N2CCNCC2)nc2ccccc12 [Compound AD, 4-[(1S,2S)-(2-Hydroxycyclopentan-1-yl)oxy]-2-(1-piperazinyl)quinazolinemonoacetate] | + | +
20 | OC[C@@H](O)COc1nc(N2CCNCC2)nc2ccccc12 [Compound BN, 4-[(2R)-(2,3-Dihydroxypropan-1-yl)oxy]-2-(1-piperazinyl)quinazoline] | + | 
21 | Cl.OC[C@@H](O)[C@H](O)COc1nc(N2CCNCC2)nc2ccccc12 [Compound BM, 4-[(2R,3R)-(2,3,4-Trihydroxybutan-1-yl)oxy]-2-(1-piperazinyl)quinazoline monohydrochloride] | + | +
22 | OC[C@H](O)[C@H](O)COc1nc(N2CCNCC2)nc2ccccc12 (racemic) [Compound BK, 4-[(2RS,3SR)-(2,3,4-Trihydroxybutan-1-yl)oxy]-2-(1-piperazinyl)quinazoline] | + | +
23 | O[C@@H]1COC[C@@H]1Oc1nc(N2CCNCC2)nc2ccccc12 (relative stereo) [Compound AG, 4-[cis-(4-Hydroxytetrahydrofuran-3-yl)oxy]-2-(1-piperazinyl)quinazolinemonoacetate] | + | +
24 | O[C@@H]1C[C@H](Oc2nc(N3CCNCC3)nc3ccccc23)C[C@@H]1O [Compound AN, 4-[(c-3,c-4-Dihydroxycyclopentan-r-1-yl)oxy]-2-(1-piperazinyl)quinazoline monohydrochloride] | + | +
25 | CC(=O)O.OCC(O)COc1nc(N2CCNCC2)nc2ccccc12 (racemic) [Compound BB, 4-[(RS)-(2,3-Dihydroxypropyl)oxy]-2-(1-piperazinyl)quinazoline monoacetate] | + | +
26 | O[C@@H]1[C@@H](Oc2nc(N3CCNCC3)nc3ccccc23)CC[C@@H]1O (relative stereo) [Compound AL, 4-[(t-2,t-3-Dihydroxycyclopentan-r-1-yl)oxy]-2-(1-piperazinyl)quinazoline monoacetate] | + | +
27 | O[C@@H]1COC[C@H]1Oc1nc(N2CCNCC2)nc2ccccc12 [Compound AJ, 4-[(3R,4R)-(4-Hydroxytetrahydrofuran-3-yl)-oxy]-2-(1-piperazinyl)quinazoline 1/2 hydrochloride] | + | +
